This note sets out measurements from ChEMBL document CHEMBL5241090, “A comprehensive overview of β-carbolines and its derivatives as anticancer agents” (Eur J Med Chem, 2021).

Converted amounts (≈) assume the structure as drawn.

One test concerns NCI-H187. Briefly: Cytotoxicity against human NCI-H187 cells. The class given is functional, cell-based.
Another test relates to Col2. Briefly: Cytotoxicity against human Col2 cells. The class given is functional, cell-based.
The test system of a further test is HUVEC. In words: Cytotoxicity against human HUVEC cells. The class given is functional, cell-based.
The next test relates to LNCaP. Briefly: Cytotoxicity against human LNCaP cells. The class given is functional, cell-based.
Test [1] in a line: Cytotoxicity against human Lu1 cells. The class given is functional, cell-based.
Another test has as its system TERT-RPE1. In words: Cytotoxicity against human TERT-RPE1 cells. The class given is functional, cell-based. Particulars: RPE-1.
The subject of test [2] is HeLa. Briefly: Cytotoxicity against human HeLa cells measured after 48 hrs by MTT assay. The class given is functional, cell-based.
A further test has as its system HGC-27. Briefly: Cytotoxicity against human HGC-27 cells measured after 48 hrs by MTT assay. The class given is functional, cell-based. Particulars: HGC-27, 48 h. For orientation: Tetrazolium assays rely on reduction of a dye to a coloured formazan, in cell work by metabolically active cells.
For test [3], the system named is MCF7. In words: Cytotoxicity against human MCF7 cells measured after 48 hrs by MTT assay. The class given is functional, cell-based. Particulars: MCF7, 48 h.
A further test concerns PC-3. Briefly: Cytotoxicity against human PC-3 cells measured after 48 hrs by MTT assay. The class given is functional, cell-based. Particulars: PC-3, 48 h.
Test [4] deals with A549. In words: Cytotoxicity against human A549 cells. The class given is functional, cell-based.
The subject of test [5] is MCF7. In words: Cytotoxicity against human MCF7 cells. The class given is functional, cell-based.
A further test deals with OVCAR-3. Briefly: Cytotoxicity against human OVCAR-3 cells. The class given is functional, cell-based.
Another test deals with SMMC-7721. In words: Cytotoxicity against human SMMC-7721 cells measured after 48 hrs by MTT assay. The class given is functional, cell-based. Particulars: SMMC-7721, 48 h.
For test [6], the system named is A549. In words: Cytotoxicity against human A549 cells measured after 48 hrs by MTT assay. The class given is functional, cell-based. Conditions: A549, 48 h.
Test [7] relates to SGC-7901. In words: Cytotoxicity against human SGC-7901 cells measured after 48 hrs by MTT assay. Particulars: SGC-7901, 48 h. The class given is functional, cell-based.
Another test relates to KB. In words: Cytotoxicity against human KB cells assessed as inhibition of growth measured after 1 day by hemacytometer. Conditions: 24 h, read-out: ED50 (the source's name). The class given is functional.
The next test has as its system MDA-MB-231. Briefly: Growth inhibition of human MDA-MB-231 cells incubated for 72 hrs by SRB assay. The class given is functional, cell-based. Conditions: MDA-MB-231, 72 h. On the technique in general: In SRB staining, fixed cells bind dye roughly in proportion to their protein.
Test [8] deals with A549. Briefly: Growth inhibition of human A549 cells incubated for 72 hrs by SRB assay. The class given is functional, cell-based. Particulars: A549, 72 h.
The subject of the next test is HT-29. Briefly: Growth inhibition of human HT-29 cells incubated for 72 hrs by SRB assay. The class given is functional, cell-based. Particulars: HT-29, 72 h.
Another test relates to HT-1080. Briefly: Cytotoxicity against human HT-1080 cells. The class given is functional, cell-based.
A short description of test [9]: Cytotoxicity against human 95-D cells assessed as reduction in optical density by MTT assay. The class given is functional, cell-based.
Test [10] has as its system SGC-7901. In words: Cytotoxicity against human SGC-7901 cells assessed as reduction in optical density by MTT assay. The class given is functional, cell-based.
A further test concerns HepG2. Briefly: Cytotoxicity against human HepG2 cells assessed as reduction in optical density by MTT assay. The class given is functional, cell-based.
In another test the target is T1, DNA topoisomerase 1 (Homo sapiens, UniProt P11387).
T1 sequence (P11387 whole entry): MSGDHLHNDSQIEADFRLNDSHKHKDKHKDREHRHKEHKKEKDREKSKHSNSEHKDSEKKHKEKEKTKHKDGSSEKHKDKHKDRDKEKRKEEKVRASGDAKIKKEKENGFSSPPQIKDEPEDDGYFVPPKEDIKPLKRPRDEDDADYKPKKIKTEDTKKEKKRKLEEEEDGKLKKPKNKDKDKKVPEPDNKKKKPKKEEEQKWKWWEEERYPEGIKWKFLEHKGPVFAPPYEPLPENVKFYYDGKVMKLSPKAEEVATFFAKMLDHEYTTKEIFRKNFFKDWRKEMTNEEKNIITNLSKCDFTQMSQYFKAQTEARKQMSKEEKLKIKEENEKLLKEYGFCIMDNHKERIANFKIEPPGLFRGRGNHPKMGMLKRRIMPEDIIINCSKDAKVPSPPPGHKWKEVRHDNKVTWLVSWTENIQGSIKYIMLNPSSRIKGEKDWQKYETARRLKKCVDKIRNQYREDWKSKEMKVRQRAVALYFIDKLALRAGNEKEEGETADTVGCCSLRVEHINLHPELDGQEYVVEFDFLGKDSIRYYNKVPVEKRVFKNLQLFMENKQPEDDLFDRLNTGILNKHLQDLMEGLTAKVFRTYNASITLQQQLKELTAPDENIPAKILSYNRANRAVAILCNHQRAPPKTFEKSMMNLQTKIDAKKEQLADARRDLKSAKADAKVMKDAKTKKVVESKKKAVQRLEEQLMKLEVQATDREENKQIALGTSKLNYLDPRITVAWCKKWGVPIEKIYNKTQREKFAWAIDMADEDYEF
Briefly: Inhibition of Topoisomerase 1 (unknown origin).

For a further test, the system named is ACHN. In words: Cytotoxicity against human ACHN cells. The class given is functional, cell-based.
For the next test, the system named is DU-145. Briefly: Cytotoxicity against human DU-145 cells. The class given is functional, cell-based.
For test [11], the system named is HeLa. In words: Cytotoxicity against human HeLa cells. The class given is functional, cell-based.

Take `C[C@H](O)c1nc(O)cc2c1[nH]c1ccccc12`: in the test on NCI-H187, the IC50 (usually the concentration that gives 50% inhibition) was 79.9 µM.
In the case of `COc1cc2c3ccccc3n3c(=O)ccc(n1)c23`, the IC50 (in the test with Col2; in the test on HUVEC; in the test with LNCaP; in test [1]; in the test with TERT-RPE1) was 503 nM in each case.
With `COc1ccc(-c2nc(Cn3cc(CN4C(=O)c5cccc6cccc(c56)C4=O)nn3)cc3c2[nH]c2ccccc23)cc1OC`, the IC50 in the test on HeLa [2], in the test with HGC-27, with MCF7 [3] and in the test with PC-3 was 7.46 µM in each case.
On to `CNCC(O)c1ccc(O)c(C2(O)c3ccccc3-[n+]3ccc4c([nH]c5ccccc54)c32)c1` (stereo not drawn), for which the half-maximal inhibitory concentration (IC50) in the test on A549 [4], with MCF7 [5] and in the test on OVCAR-3 was 27 µg/mL throughout.
As to `Cc1ccccc1Cn1c2ccccc2c2cc(C(=O)OCCCCCOC(=O)c3cc4c5ccccc5n(Cc5ccccc5C)c4cn3)ncc21`, the IC50 with HeLa [2], with SMMC-7721, in the test with A549 [6] and in the test with SGC-7901 [7] was 6.93 µM in each case.
For `COc1cnc2ccc(=O)n3c4cccc(O)c4c1c23`, the EC50 in the test on KB is 2 µg/mL (≈ 7.51 µM).
Turning to `COc1ccc2[nH]c3cnc(-c4c[nH]c5cc(O)ccc45)c(C(=O)O)c3c2c1`, the IC50 was determined as 90 µg/mL (≈ 241 µM) in the test on MDA-MB-231, 100 µg/mL (≈ 268 µM) with A549 [8] and 35 µg/mL (≈ 93.7 µM) with HT-29.
Take `COc1ccc2c3ccnc4c(OC)cc(=O)n(c2c1)c43`: in the test on HT-1080, the IC50 is 5 µM.
Turning to `O=C(OCCCCCOC(=O)c1cc2c3ccccc3n(Cc3ccccc3F)c2cn1)c1cc2c3ccccc3n(Cc3ccccc3F)c2cn1`, the IC50 with HeLa [2], in the test with SMMC-7721, in the test on A549 [6] and in the test with SGC-7901 [7] was 5.61 µM throughout.
`COc1c(O)ccc2c1c1ccnc3ccc(=O)n2c31` came in with an IC50 in the test with HT-1080 of 7.2 µM.
`COC(=O)c1cc2c([nH]c3ccccc32)c([C@H](C)O)n1`: the IC50 in the test on NCI-H187 is 75.1 µM.
Turning to `NC(=O)c1c(-c2c[nH]c3cc(O)ccc23)ncc2[nH]c3ccc(O)cc3c12`, the IC50 was 42 µg/mL (≈ 117 µM) in the test with MDA-MB-231, 35 µg/mL (≈ 97.7 µM) in the test on A549 [8] and 45 µg/mL (≈ 126 µM) with HT-29.
Turning to `CCn1c2cc(OC)ccc2c2ccnc(C)c21`, the IC50 was 36 µM in [9], less than 36 µM with SGC-7901 [10] and less than 36 µM in the test on HepG2.
At DNA topoisomerase 1, `c1ccc2c(c1)[nH]c1cnccc12` [NORHARMANE] returned an IC50 of 31 µM.
`CC(=O)N1N=C(c2ccco2)CC1c1cc2c([nH]c3ccccc32)c(-c2ccc(C(F)(F)F)cc2)n1` (stereo not drawn): the IC50 with ACHN, in the test on DU-145, with A549 [4], in the test on MCF7 [5] and in the test with HeLa [11] was 1940 nM in each case.
For the compound `O=C(O)c1c(-c2c[nH]c3cc(O)ccc23)ncc2[nH]c3ccc(O)cc3c12`, the values for the IC50 with MDA-MB-231, in the test with A549 [8] and in the test on HT-29 were 25 µg/mL (≈ 69.6 µM), 30 µg/mL (≈ 83.5 µM) and 42 µg/mL (≈ 117 µM), respectively.
